“Also recorded” adds a separate entry of the source. Like-named read-outs stand apart in the source and are kept apart here.
Tests used:
[1] = test system: human ventricular cardiac organoid chamber (hvCOC); assay: hvCOC second tier screening: contractile (pump) function; format: cell-based
Description: The initial steps of hvCOC fabrication are identical to that described above for hvCTS generation, from the dissociation of cell clusters to the preparation of the cells/collagen/Matrigel mix with 1 million cells/ml of human dermal fibroblasts.
To create the chamber, we followed a procedure similar to a published procedure^29, incorporated herein by reference. Briefly, the top of a 3×3×6 cm polystyrene bioreactor was modified to permit 9-gauge hypodermic tubing (Small Parts) to pass through the center and 4 mm diameter graphite electrodes (GraphiteStore) to flank the chamber on the edges of the bioreactor. A 6-Fr silicone balloon Foley catheter (Cook Medical), with the tip cut off and sealed with silicone caulking, was threaded through the 9-Gauge tubing into the center of the bioreactor. A small ring cut from hydrophilic porous polyethylene (Fisher Scientific) was placed just above the balloon on the hypodermic tubing.
The balloon was filled with distilled water to the desired chamber size and positioned concentrically within a 2% agarose mold created in phosphate-buffered saline (PBS) and made by inserting a 13 mm diameter test tube (VWR) into the center of the agarose. The agarose mold forms the outer mold boundary while the catheter balloon forms the inner boundary. […]

EHT from hiPSC-CMs = settings: drug screening with EHT from hiPSC-CMs; ref [3]; cited from earlier work
[2] = test system: human ventricular cardiac tissue strips (hvCTS); assay: hvCTS drug screening: twitch force under electrical pacing; format: cell-based; settings: Homo sapiens
Procedure: One of ordinary skill in the art will recognize that the gels can be formed in any of a variety of sizes and shapes, and the molds used to form such gels can also be formed in any of a variety of sizes and shapes, depending on the intended use of the molded gel. The molded mixtures were then bathed with culture medium (DMEM supplemented with 10% newborn calf serum), and maintained in culture with daily half-medium exchanges. Inserts in the casting molds were removed at 48 hours, yielding a self-assembled hvCTS held between 0.5-mm-diameter circular PDMS posts at each end. It is apparent that the posts can be formed from any flexible material amenable to at least one form of sterilization are suitable. As noted above, the whole mold can be scaled up or down depending on the application, and the posts can also be scaled up or down. In general, the height of the posts would be similar to the height of a well (e.g., about 6 mm in an exemplary embodiment). Any of a wide variety of cross-sectional shapes is contemplated as being suitable for use in the system, apparatus and methods according to the disclosure. At 7 days after hvCTS creation, the hvCTS were used for drug screening.
Initially, pharmacological compounds were prepared for screening. Compounds for unblinded “open label” screening were purchased from Sigma and stock solutions at the highest possible concentrations were prepared according to the product information. Working concentrations over a 5-logarithmic range were prepared for each drug.
Working concentrations over a 5-logarithmic range were prepared for each drug according to the dose-range recommendation provided by the supplier.
New born calf serum containing medium was replaced with DMEM high glucose with HEPES without phenol red for optical measurement of generated force in hvCTS. […] The integrated flexible PDMS posts were used as force sensors, with the post deflection captured in real-time with a high-speed camera (100 frames/s) and LabView software (National Instruments, Austin, Tex., USA), applying a beam-bending equation from elasticity theory to calculate twitch force, as described previously^[2] and incorporated herein by reference. These measurements were obtained with the hvCTS maintained in the original molds where they were created with the hvCTS bathed in culture medium at 37° C. For each drug, force generated in response to 9 doses were measured with the drugs added to the hvCTS at half log increments in a cumulative manner. For each dose, the force generated at 0 Hz, 0.5 Hz, 1 Hz, 1.5 Hz and 2 Hz electrical pacing with field electrodes were measured.
Data analysis. Data were calculated and analyzed by a customized MatLab program. Force frequency curves for each drug were generated by plotting the generated force at 0.5 Hz, 1 Hz, 1.5 Hz and 2 Hz at different concentrations. All forces were normalized to the generated force at 0.5 Hz at the drug-free baseline condition (100%).
[…] The force generated under drug-free baseline condition was defined as 100%. The force generated at each drug concentration was then normalized to the generated force under the cognate drug-free baseline condition. The EC50 of each tested drug was estimated by fitting to a four-parameter dose-response equation given as: Y=Bottom+(Top-Bottom)/(1+10^((Log EC^50^−X)*HillSlope)), using commercial software (GraphPad Software Inc.). X is the logarithm of drug concentrations; […]; Top and Bottom are the Y values of the top and bottom plateaus of the curve itself; Baseline is the Y value that defines 0%—maximal inhibition by a standard drug. Hill Slope quantifies the steepness of the dose-response curve (the higher the Hill Slope, the steeper the curve).

[3] = test system: non-failing human myocardium; settings: ref [18]; cited from earlier work
[4] = test system: sheep cardiac Purkinje fibers; settings: ref [19]; cited from earlier work
hECT = hECT in muscle bath; ref [28]; cited from earlier work
[5] = test system: human right atrial trabeculae; settings: ref [21]; cited from earlier work

In the case of `CC(C)NCC(O)c1ccc(O)c(O)c1` (stereo not shown) [Isoproterenol], the Emax at 10 µM ([1]; Homo sapiens, 10 μM isoproterenol, hvCOC, read-out: maximal effect, pressure) is listed as 132%, the “effect on hvCOC function” value ([1]; stroke volume/stroke work, cardiac output, developed pressure) is listed as “concentration-dependent increase in stroke volume, cardiac output, and developed pressure; also recorded: increase in stroke work, cardiac output and pressure volume loop” and the relevant concentration (EHT from hiPSC-CMs) is listed as 5.4 nM [3], drug screening with EHT from hiPSC-CMs. For the same compound, the EC50 ([2]; 0.5 Hz pacing, Example 2 / FIG. 2C, read-out: EC50, developed contractile force) was 39 nM, the EC50 ([2]; 1 Hz pacing, Example 2, read-out: EC50, developed contractile force) was 59 nM and the EC50 ([2]; 1 Hz pacing, unblinded screening, Example 3, read-out: EC50, developed contractile force) was 150 nM. For the same compound, the EC50 ([2]; 1.5 Hz pacing, Example 2, read-out: EC50, developed contractile force) was 54 nM, the EC50 ([2]; 2 Hz pacing, Example 2 / FIG. 2C, read-out: EC50, developed contractile force) was 31 nM and the EC50 ([2]; Unblinded, 1 Hz pacing, read-out: -log EC50 in hvCTS (converted)) was 148 nM. It also gave an EC50 ([2]; Unblinded, 1 Hz pacing, read-out: EC50 in hvCTS (in brackets)) of 150 nM, an EC50 ([2]; across pacing frequencies 0.5-2 Hz, FIG. 2C, read-out: EC50 with increasing pacing frequency) of 31 to 59 nM and an Emax at 10 µM ([2]; 10 μM isoproterenol, hvCTS, read-out: maximal effect) of 113%. For the same compound, the relevant concentration [3] was 0.8 μM [18], non-failing human myocardium.
In the case of `CCN(CC)CC(=O)Nc1c(C)cccc1C` [Lidocaine], the “concentration with negative inotropic effect” value [4] is listed as 20 μM, [19] negative inotropic effect in sheep, the IC50 ([2]; 1 Hz pacing, blinded screening, Example 4, read-out: IC50, developed contractile force) is listed as 440 nM and the EC50 ([2]; Blinded, 1 Hz pacing, read-out: -log EC50 in hvCTS (converted)) is listed as 437000 nM. It also gave an EC50 ([2]; Blinded, 1 Hz pacing, read-out: EC50 in hvCTS (in brackets)) of 439000 nM.
For `COc1ccc(CCN(C)CCCC(C#N)(c2ccc(OC)c(OC)c2)C(C)C)cc1OC` (stereo not shown) [Verapamil], the relevant concentration (hECT) is given as 0.61 μM [28], hECT in muscle bath and the IC50 [5] is given as 123 nM.

Source: US20200369996A1, “Bioreactor Screening Platform for Modelling Human Systems Biology and for Screening for Inotropic Effects of Agents on the Heart” (NOVOHEART LIMITED, priority 2017, published 2020)
